The supplement of paper PMC12463676, “Small-molecule dissolution of stress granules by redox modulation benefits ALS models” (Nature Chemical Biology, 2025)

What was measured:
[1] = compound: NC(=O)CCCCC1CCSS1 [lipoamide]; experiment: thermal stability z-score vs DMSO; higher = more thermally stabilized by treatment; conditions: HeLa, lipoamide concentration 100 µM
Method: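 Cellular thermal proteome profiling in HeLa cells. Cells were treated with 100 µM lipoamide for 1 h, with or without 1 mM arsenate for a further 1 h, then heated to ten temperatures (37-66.3 °C), and soluble protein was quantified by TMT mass spectrometry relative to 0.1% DMSO controls. The thermal stability score (sum of log2 fold changes minus the abundance score) was transformed to a z-score; mean of n = 3 experiments.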

[2] = compound: O=[As]([O-])(O)O.[K+] [potassium arsenate]; experiment: as above; conditions: HeLa; arsenate concentration 1 mM
Method: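 Cellular thermal proteome profiling in HeLa cells treated with 1 mM arsenate for 1 h (DMSO pretreatment), heated to ten temperatures (37-66.3 °C). Soluble protein was quantified by TMT mass spectrometry relative to DMSO controls; the thermal stability score was transformed to a z-score; mean of n = 3 experiments.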

[3] = arsenate co-treatment: 1 mM arsenate 1 h
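Also: each temperature applied for 3 min, abundance score taken as mean log2 fold change at the two lowest temperatures, z-score obtained by mean subtraction and division by SD.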

UniProt Q9UPN4, sequence (Q9UPN4 whole entry): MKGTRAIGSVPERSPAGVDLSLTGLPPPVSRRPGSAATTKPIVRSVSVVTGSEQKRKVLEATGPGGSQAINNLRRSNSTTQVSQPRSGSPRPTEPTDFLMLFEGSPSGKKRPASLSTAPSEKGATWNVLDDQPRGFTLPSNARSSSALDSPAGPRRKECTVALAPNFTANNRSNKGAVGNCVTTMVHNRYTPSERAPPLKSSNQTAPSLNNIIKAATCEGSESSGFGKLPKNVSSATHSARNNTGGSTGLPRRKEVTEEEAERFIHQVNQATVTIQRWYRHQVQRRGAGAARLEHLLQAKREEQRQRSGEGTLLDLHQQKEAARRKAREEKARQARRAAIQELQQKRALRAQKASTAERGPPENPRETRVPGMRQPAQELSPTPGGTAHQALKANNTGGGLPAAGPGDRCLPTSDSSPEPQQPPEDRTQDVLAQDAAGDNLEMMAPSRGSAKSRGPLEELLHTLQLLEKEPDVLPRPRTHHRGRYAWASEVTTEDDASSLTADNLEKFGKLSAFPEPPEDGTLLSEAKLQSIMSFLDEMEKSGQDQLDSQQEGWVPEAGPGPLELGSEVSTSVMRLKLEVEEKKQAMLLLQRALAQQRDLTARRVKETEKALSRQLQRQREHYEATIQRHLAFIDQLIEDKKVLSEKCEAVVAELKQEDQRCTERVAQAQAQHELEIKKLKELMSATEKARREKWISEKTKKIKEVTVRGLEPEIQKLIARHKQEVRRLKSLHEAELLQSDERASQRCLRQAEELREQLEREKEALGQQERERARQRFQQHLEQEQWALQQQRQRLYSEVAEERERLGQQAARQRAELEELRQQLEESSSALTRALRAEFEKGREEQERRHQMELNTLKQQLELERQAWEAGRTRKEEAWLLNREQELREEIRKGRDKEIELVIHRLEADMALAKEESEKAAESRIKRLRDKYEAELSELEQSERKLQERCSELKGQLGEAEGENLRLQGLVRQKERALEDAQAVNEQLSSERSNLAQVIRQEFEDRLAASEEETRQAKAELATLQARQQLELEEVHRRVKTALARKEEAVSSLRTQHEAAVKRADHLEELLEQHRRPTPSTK
UniProt Q9BQD7, sequence (Q9BQD7 whole entry): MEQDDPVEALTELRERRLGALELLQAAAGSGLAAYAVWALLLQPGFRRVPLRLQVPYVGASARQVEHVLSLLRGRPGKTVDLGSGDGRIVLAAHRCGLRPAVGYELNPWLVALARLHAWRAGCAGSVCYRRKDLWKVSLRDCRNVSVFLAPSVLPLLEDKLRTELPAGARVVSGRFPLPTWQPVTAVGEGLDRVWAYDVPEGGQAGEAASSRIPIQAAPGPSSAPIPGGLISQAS
UniProt Q8WUF5, sequence (Q8WUF5 whole entry): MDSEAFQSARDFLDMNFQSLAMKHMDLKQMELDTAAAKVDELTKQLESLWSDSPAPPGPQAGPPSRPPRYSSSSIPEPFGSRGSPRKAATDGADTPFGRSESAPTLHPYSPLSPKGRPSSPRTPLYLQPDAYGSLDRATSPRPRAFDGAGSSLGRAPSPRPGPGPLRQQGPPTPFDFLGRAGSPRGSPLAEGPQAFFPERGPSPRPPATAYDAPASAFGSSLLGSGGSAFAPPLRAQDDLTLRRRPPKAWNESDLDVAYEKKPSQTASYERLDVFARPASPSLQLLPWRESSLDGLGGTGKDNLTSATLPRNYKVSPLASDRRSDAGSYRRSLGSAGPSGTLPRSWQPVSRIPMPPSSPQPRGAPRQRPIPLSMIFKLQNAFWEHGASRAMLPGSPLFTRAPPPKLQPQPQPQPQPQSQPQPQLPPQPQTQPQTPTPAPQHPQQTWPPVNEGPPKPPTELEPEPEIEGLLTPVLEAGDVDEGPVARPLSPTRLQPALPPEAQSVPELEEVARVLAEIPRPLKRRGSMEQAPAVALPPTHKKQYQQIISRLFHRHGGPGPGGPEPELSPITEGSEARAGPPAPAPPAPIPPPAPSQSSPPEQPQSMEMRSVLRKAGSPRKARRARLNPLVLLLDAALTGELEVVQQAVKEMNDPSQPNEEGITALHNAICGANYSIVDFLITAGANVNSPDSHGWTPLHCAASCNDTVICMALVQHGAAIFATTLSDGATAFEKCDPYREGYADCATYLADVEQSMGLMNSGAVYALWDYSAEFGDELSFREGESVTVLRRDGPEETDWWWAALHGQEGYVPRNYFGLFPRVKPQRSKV
UniProt Q13418, sequence (Q13418 whole entry): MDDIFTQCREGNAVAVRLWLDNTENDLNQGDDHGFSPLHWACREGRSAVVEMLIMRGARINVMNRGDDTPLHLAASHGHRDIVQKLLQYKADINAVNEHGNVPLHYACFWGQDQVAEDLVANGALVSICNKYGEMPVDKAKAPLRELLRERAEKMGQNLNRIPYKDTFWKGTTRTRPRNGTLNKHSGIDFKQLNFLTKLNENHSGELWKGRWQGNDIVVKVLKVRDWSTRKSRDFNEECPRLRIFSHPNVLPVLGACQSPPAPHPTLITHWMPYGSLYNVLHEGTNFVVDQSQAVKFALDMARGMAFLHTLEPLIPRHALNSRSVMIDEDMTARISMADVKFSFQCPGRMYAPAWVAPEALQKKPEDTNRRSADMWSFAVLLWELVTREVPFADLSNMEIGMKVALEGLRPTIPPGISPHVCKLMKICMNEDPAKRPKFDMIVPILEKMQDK
UniProt Q6YHK3, sequence (Q6YHK3 whole entry): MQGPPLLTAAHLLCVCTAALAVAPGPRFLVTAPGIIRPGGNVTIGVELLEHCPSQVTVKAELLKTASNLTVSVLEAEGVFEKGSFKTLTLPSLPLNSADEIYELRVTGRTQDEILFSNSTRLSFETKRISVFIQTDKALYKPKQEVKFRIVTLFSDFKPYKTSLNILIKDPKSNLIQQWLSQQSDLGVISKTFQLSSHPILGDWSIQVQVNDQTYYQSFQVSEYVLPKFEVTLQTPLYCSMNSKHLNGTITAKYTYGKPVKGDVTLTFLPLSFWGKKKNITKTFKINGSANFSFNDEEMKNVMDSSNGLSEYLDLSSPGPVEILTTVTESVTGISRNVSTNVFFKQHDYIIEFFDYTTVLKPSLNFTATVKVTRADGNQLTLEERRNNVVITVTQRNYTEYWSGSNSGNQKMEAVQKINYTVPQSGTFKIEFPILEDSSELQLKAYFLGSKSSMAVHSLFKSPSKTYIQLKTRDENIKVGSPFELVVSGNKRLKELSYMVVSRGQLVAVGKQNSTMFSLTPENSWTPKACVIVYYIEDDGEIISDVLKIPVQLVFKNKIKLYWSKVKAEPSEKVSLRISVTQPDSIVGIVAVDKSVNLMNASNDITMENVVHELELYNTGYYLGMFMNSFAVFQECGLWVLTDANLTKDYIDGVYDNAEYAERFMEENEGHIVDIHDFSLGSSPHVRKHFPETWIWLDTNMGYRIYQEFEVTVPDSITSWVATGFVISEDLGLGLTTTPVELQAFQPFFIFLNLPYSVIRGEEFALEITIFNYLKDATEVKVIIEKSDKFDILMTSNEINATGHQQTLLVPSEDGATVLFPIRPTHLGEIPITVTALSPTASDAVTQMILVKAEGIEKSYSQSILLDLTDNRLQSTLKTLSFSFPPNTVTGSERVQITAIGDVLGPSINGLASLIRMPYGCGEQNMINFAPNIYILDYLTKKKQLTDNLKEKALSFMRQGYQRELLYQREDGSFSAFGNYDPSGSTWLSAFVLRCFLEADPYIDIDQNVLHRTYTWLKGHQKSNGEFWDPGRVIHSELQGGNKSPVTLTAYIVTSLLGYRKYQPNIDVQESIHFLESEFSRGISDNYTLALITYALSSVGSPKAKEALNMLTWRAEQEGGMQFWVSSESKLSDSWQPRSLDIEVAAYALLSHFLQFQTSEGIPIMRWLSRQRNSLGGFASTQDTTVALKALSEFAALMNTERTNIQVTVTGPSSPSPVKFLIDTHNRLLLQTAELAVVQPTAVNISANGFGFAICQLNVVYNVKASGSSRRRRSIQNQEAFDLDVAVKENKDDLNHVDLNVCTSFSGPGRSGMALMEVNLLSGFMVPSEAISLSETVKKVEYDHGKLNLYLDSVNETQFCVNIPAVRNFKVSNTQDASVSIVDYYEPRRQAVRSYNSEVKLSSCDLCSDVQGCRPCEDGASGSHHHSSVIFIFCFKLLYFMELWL
UniProt Q03169, sequence (Q03169 whole entry): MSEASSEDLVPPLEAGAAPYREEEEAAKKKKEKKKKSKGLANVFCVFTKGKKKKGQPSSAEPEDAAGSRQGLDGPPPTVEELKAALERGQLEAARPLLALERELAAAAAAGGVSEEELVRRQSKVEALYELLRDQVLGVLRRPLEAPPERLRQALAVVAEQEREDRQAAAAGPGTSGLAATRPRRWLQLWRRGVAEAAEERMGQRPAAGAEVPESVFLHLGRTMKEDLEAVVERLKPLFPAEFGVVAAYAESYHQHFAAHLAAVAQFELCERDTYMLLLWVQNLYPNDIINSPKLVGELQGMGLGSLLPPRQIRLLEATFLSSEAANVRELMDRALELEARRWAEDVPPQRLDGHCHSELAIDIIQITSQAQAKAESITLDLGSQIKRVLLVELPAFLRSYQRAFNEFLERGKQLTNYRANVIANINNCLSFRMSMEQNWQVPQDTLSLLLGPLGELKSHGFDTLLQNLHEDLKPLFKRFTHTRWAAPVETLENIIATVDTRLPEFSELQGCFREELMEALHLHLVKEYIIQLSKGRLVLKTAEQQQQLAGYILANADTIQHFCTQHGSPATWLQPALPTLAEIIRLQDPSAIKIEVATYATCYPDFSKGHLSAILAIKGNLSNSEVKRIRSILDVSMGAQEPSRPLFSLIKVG
UniProt Q15555, sequence (Q15555 whole entry): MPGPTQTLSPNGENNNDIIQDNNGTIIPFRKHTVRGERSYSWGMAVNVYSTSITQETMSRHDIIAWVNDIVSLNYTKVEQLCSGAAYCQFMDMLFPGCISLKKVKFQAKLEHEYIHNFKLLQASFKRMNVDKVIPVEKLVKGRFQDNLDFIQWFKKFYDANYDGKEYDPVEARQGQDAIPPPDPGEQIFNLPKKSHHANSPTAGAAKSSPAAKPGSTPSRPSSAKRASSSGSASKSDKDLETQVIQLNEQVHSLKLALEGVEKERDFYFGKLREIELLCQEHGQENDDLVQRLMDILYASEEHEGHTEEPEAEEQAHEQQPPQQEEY

Target	thermal stability z-score [1, 3]	thermal stability z-score ([1]; arsenate co-treatment: none)	thermal stability z-score [2]
ZFC3H1 (UniProt O60293)	0.164	-0.0359	-0.434
PIP4K2B (UniProt P78356)	0.0141	0.0907	0.0439
TMED1 (UniProt Q13445)	0.206	0.729	0.967
CD109 (UniProt Q6YHK3)	-0.877	-1.01	1.06
FKBP7 (UniProt Q9Y680)	-4.17	-4.05	-0.253
CEP131 (UniProt Q9UPN4)	-0.287	-0.195	0.215
TM9SF4 (UniProt Q92544)	-0.593	-0.263	0.734
CISD2 (UniProt Q8N5K1)	0.556	0.316	-0.581
NPTX1 (UniProt Q15818)	-3.62	-3.29	0.869
CASP7 (UniProt P55210)	0.596	0.147	-0.753
DDX11 (UniProt Q96FC9)	-0.753	-0.517	1.07
PCYOX1 (UniProt Q9UHG3)	0.606	-0.723	0.0412
SNCA (UniProt P37840)	0.553	0.198	-0.263
PSMD11 (UniProt O00231)	-0.641	-0.384	-0.694
MUL1 (UniProt Q969V5)	-0.0704	-0.261	-2.82
CALCOCO2 (UniProt Q13137)	0.172	0.108	0.743
TNFAIP2 (UniProt Q03169)	0.331	0.638	0.97
BRAF (UniProt P15056)	-0.207	0.176	0.328
ACTR2 (UniProt P61160)	-0.116	-0.175	-0.487
SEC24B (UniProt O95487)	-0.766	-0.328	0.116
RASSF8 (UniProt Q8NHQ8)	-0.0675	-0.05	-0.0803
KLC1 (UniProt Q07866)	-0.0381	-0.129	-0.0989
SHMT2 (UniProt P34897)	-0.198	-0.436	0.0996
NDUFV2 (UniProt P19404)	0.418	-0.0827	0.966
CEBPZ (UniProt Q03701)	0.161	-0.141	-1.01
DDRGK1 (UniProt Q96HY6)	-1.17	-0.728	0.397
HSPA13 (UniProt P48723)	-2.72	-2.35	-0.112
CTCF (UniProt P49711)	0.761	-0.0166	-1.14

Target	thermal stability z-score [1, 3]	thermal stability z-score ([1]; arsenate co-treatment: none)	thermal stability z-score [2]
RBMS2 (UniProt Q15434)	0.0996	0.158	-0.0696
POLR1B (UniProt Q9H9Y6)	0.138	-0.017	-1.91
CSTF2 (UniProt P33240)	1.09	0.979	0.756
GFPT1 (UniProt Q06210)	-0.127	-0.196	-0.331
PABPC4 (UniProt Q13310)	0.322	0.911	-0.478
CMBL (UniProt Q96DG6)	0.865	0.482	-0.162
PTBP3 (UniProt O95758)	-0.713	0.0298	-0.772
ARRDC1 (UniProt Q8N5I2)	-0.245	0.802	0.121
FAM173A (UniProt Q9BQD7)	-0.403	-0.6	-0.445
LONP2 (UniProt Q86WA8)	-0.55	-0.13	0.393
EFCAB14 (UniProt O75071)	-0.971	-1.74	0.262
MALSU1 (UniProt Q96EH3)	-1.47	-1.5	-1.01
PPP1R13L (UniProt Q8WUF5)	-0.367	-0.132	-0.21
SDF2 (UniProt Q99470)	-3.1	-2.94	0.21
RPP30 (UniProt P78346)	-0.9	-0.668	-1.55
ATP13A3 (UniProt Q9H7F0)	-0.563	0.206	0.165
MARCKSL1 (UniProt P49006)	0.667	0.788	0.248
KRR1 (UniProt Q13601)	-0.00732	0.0711	-0.512
GTF3C2 (UniProt Q8WUA4)	0.112	0.0176	-0.411
ILK (UniProt Q13418)	0.201	-0.00153	0.129
MAPRE2 (UniProt Q15555)	-0.858	0.732	1.11
SH3KBP1 (UniProt Q96B97)	0.46	0.0841	-0.523
CHMP1B (UniProt Q7LBR1)	-0.234	0.171	0.0259
WBSCR22 (UniProt O43709)	-0.223	-0.46	-0.902
SEC24A (UniProt O95486)	-0.232	-0.0421	0.178
SRRT (UniProt Q9BXP5)	0.06	0.206	-0.751
SERPINB8 (UniProt P50452)	0.899	0.458	-1.08
